Test results reported in PMC10892419, “UHPLC-MS/MS Assay for Quantification of Legubicin, a Novel Doxorubicin-Based Legumain-Activated Prodrug, and Its Application to Pharmacokinetic and Tissue Distribution Studies” (Molecules, 2024).

Columns and labels:
[1] = Single-dose pharmacokinetic study of legubicin, i.v.; conditions: free metabolite in plasma; for AUClast / Cmax: n = 3, mean ± SD; for Tmax: n = 3, median [min, max]
Method: The pharmacokinetic parameters are outlined in Table 5. […] A power-function model was used to fit the relationship between exposure level (Cmax, AUClast, and AUCINF_obs) parameters and dose, and the power exponent (parameter β) and its 90% confidence interval were obtained (see Table S5).
(§1) The mixture was vortexed for 3 min, and then centrifuged at 22,000× g at 4 °C for 10 min. A final analysis was conducted by injecting 5 µL supernatant into a UHPLC-MS/MS system. Mouse plasma samples were treated in the same way as the rat plasma samples, except for protein precipitation, with 200 µL of 5 pmol/mL IS working solution and injection of 2 µL of supernatant for analysis.
(§2) (1) For the hydrolysis process, an aliquot of 25 µL of rat/mouse plasma was transferred into an Eppendorf tube, and then 50 µL of enzyme digestion buffer and 25 µL of legumain enzyme were placed into the tube. The mixture was vortexed for 1 min, and then incubated in a water bath for 24 h at 37 °C for enzymatic hydrolysis. (2) For the protein precipitation process, 1000 µL of IS working solution (5 pmol/mL and 50 pmol/mL for rat and mouse plasmas, respectively) was added to the enzymatic-hydrolysis solution. Then, the sample was vortexed for 3 min and centrifuged at 22,000× g for 10 min at 4 °C. Analyses were performed on the 3 µL aliquot of the solution used in the UHPLC-MS/MS system.
(§3) Twenty-four rats, inclusive of both sexes, were randomly distributed into four groups. Groups 1, 2, and 3 were single-dose groups, among which the subjects received legubicin via tail intravenous injection (a dose of 1.5, 5, or 15 mg/kg; i.e., 1.36, 4.52, or 13.6 µmol/kg). The fourth group was utilized for a multi-dose study at 5 mg/kg (once-weekly for 4 consecutive weeks). Blood samples of approximately 150 µL were taken from the jugular vein at 0 h (pre-dosing) and at 0.167 h (10 min), 0.5 h, 1 h, 2 h, 4 h, 8 h, 24 h, 48 h, and 72 h post-dosing in the single-dose groups. Samples were also obtained on days 1 and 22 for the multiple-dose group in the same way as for the single-dose groups. However, on days 8 and 15, samples were taken only before and 10 min after administration. The K2EDTA quantities containing blood samples were centrifuged (4 °C, 4000 rpm, 10 min) to collect plasma samples, which were separated into EP tubes and kept at −80 °C until further assay.
(§4) The analysis software (Version 1.5.2, AB Sciex, Vaughan, ON, Canada) was applied to data acquisition and quantification. Pharmacokinetic parameters were calculated with WinNonlin Phoenix (v6.4, Pharsight, Mountain View, CA, USA) with the noncompartmental method, and were presented as mean ± SD (%CV). The “Best fit” strategy in the WinNonlin Phoenix was used for the calculation of elimination half-life and the selection of the elimination phase. Graphs were plotted by GraphPad Software (GraphPad Prism 8.0.2; GraphPad Software, Inc., La Jolla, CA, USA).

[2] = Multiple-dose pharmacokinetic study of legubicin, weekly i.v. for 4 weeks; conditions: free metabolite in plasma, weekly i.v. legubicin 5 mg/kg; for Tmax: median [min, max]; for AUClast / Cmax: n = 3
Method: as §1, §2, §3, §4

[3] = Tissue-distribution study after i.v. legubicin or doxorubicin; conditions: after i.v. legubicin 9.05 µmol/kg, HT1080 tumor-bearing mice
Method: as §1
Each legubicin administration group corresponded to a sampling time-point (4, 16, 32, 48, 96, 168, and 240 h after administration). […] Blood samples and tumor, heart, and kidney tissues were collected at the sampling time points (4, 16, 32, 48, 96, 168, and 240 h after dosing). In addition, liver, spleen, lung, stomach, small intestine, gonads, brain, skeletal muscle, and skin were also collected at 4, 32, 96, and 240 h post-dose time points in the legubicin administration group. All whole-blood samples were processed according to the same processing steps, described above, for rat whole-blood samples.
as §4

[4] = Storage stability of analytes in rat plasma (method validation); conditions: for Auto-Sampler Stability at 2–8 °C (72 h), Bias / Auto-Sampler Stability at 2–8 °C (72 h), Measured Concentration: processed rat plasma; for Auto-Sampler Stability at 2–8 °C (72 h), Bias / Short-Term Stability at Room Temperature (4 h), Bias / Freeze and Thaw Stability at −80 °C/Room Temperature (3 Cycles), Bias / Long-Term Stability at −80 °C (70 days), Bias: n = 6; for Auto-Sampler Stability at 2–8 °C (72 h), Measured Concentration / Freeze and Thaw Stability at −80 °C/Room Temperature (3 Cycles), Measured Concentration / Long-Term Stability at −80 °C (70 days), Measured Concentration / Short-Term Stability at Room Temperature (4 h), Measured Concentration: n = 6, mean ± SD; for Short-Term Stability at Room Temperature (4 h), Bias / Freeze and Thaw Stability at −80 °C/Room Temperature (3 Cycles), Bias / Long-Term Stability at −80 °C (70 days), Bias / Freeze and Thaw Stability at −80 °C/Room Temperature (3 Cycles), Measured Concentration / Long-Term Stability at −80 °C (70 days), Measured Concentration / Short-Term Stability at Room Temperature (4 h), Measured Concentration: rat plasma; for Short-Term Stability at Room Temperature (4 h), Bias: bias from nominal
Method: (§5) By investigating low- and high-concentration stability QCs in six replicates at different storage conditions, autosampler, short-term (bench-top), freeze and thaw, and long-term stability evaluations were conducted.

[5] = Storage stability of analytes in mouse plasma (method validation); conditions: for Freeze and thaw stability at -80 °C/ room temperature, Bias / Freeze and thaw stability at -80 °C/ room temperature, Measured concentration / Long term stability at -80 °C (30 days), Bias / Short term stability at room temperature (6 h), Bias / Long term stability at -80 °C (30 days), Measured concentration / Short term stability at room temperature (6 h), Measured concentration: mouse plasma; for Freeze and thaw stability at -80 °C/ room temperature, Bias / Freeze and thaw stability at -80 °C/ room temperature, Measured concentration: 1 cycle; for Freeze and thaw stability at -80 °C/ room temperature, Bias / Long term stability at -80 °C (30 days), Bias / Short term stability at room temperature (6 h), Bias / Auto-sampler stability at 2-8 °C, Bias: n = 6; for Freeze and thaw stability at -80 °C/ room temperature, Measured concentration / Long term stability at -80 °C (30 days), Measured concentration / Short term stability at room temperature (6 h), Measured concentration / Auto-sampler stability at 2-8 °C, Measured concentration: n = 6, mean ± SD; for Auto-sampler stability at 2-8 °C, Bias / Auto-sampler stability at 2-8 °C, Measured concentration: processed mouse plasma, 12 h
Method: as §5

[6] = Storage stability of analytes in mouse liver homogenate (method validation)
Method: Tumor-bearing mouse tumor/individual tissue samples were homogenized by adding PBS at a ratio of 1:5 (e.g., 1 g of tumor sample to 5 mL of PBS) to make a tumor/tissue homogenate. A quantity of 60 µL of homogenate was taken as a tumor/tissue sample and processed in the same manner as the mouse plasma sample, with the exception of 240 µL of IS working solution used for protein precipitation.
as §5

[7] = female SD rats, single i.v. legubicin 1.5 mg/kg
[8] = female SD rats, single i.v. legubicin 5 mg/kg
[9] = female SD rats, single i.v. legubicin 15 mg/kg
[10] = male SD rats, single i.v. legubicin 1.5 mg/kg
[11] = male SD rats, single i.v. legubicin 5 mg/kg
[12] = male SD rats, single i.v. legubicin 15 mg/kg
[13] = female SD rats, multiple dose (day 22)
[14] = female SD rats, single dose (day 1)
[15] = male SD rats, multiple dose (day 22)
[16] = male SD rats, single dose (day 1)
[17] = high QC (Leu-DOX 4000, DOX 1200 pmol/mL, conjugate 80 nmol/mL)
[18] = high QC (nominal Leu-DOX 4000, DOX 1200 pmol/mL)
[19] = low QC (Leu-DOX 10, DOX 3 pmol/mL, conjugate 0.2 nmol/mL)
[20] = low QC (nominal Leu-DOX 10, DOX 3 pmol/mL)
[21] = high QC (Leu-DOX 2400, DOX 800 pmol/mL)
[22] = high QC (nominal Leu-DOX 2400, DOX 800 pmol/mL)
[23] = low QC (Leu-DOX 9, DOX 3 pmol/mL)
[24] = low QC (nominal Leu-DOX 9, DOX 3 pmol/mL)
[25] = high QC (Leu-DOX 2400, DOX 800 pmol/mL, conjugate 80 nmol/mL)
[26] = low QC (Leu-DOX 9, DOX 3 pmol/mL, conjugate 0.2 nmol/mL)

COc1cccc2c1C(=O)c1c(O)c3c(c(O)c1C2=O)C[C@@](O)(C(=O)CO)C[C@@H]3O[C@H]1C[C@H](NC(=O)[C@@H](N)CC(C)C)[C@H](O)[C@H](C)O1 [Leu-DOX, N-L-leucyl-doxorubicin]
AUClast [1, 7]: 0.00644 ± 0.00202 µM·h | Cmax [1, 7]: 21.5 ± 7.78 nM | Tmax [1, 7]: 0.167 [0.167, 0.167] h | AUClast [1, 8]: 0.052 ± 0.0162 µM·h | Cmax [1, 8]: 72.1 ± 16.0 nM | Tmax [1, 8]: 0.167 [0.167, 0.167] h | AUClast [1, 9]: 0.336 ± 0.0625 µM·h | Cmax [1, 9]: 373 ± 63.2 nM | Tmax [1, 9]: 0.167 [0.167, 0.167] h | AUClast [1, 10]: 0.0112 ± 0.0021 µM·h | Cmax [1, 10]: 29.5 ± 2.74 nM | Tmax [1, 10]: 0.167 [0.167, 0.167] h | AUClast [1, 11]: 0.0943 ± 0.0105 µM·h | Cmax [1, 11]: 145 ± 23.9 nM | Tmax [1, 11]: 0.167 [0.167, 0.167] h | AUClast [1, 12]: 1.03 ± 0.244 µM·h | Cmax [1, 12]: 1100 ± 243 nM | Tmax [1, 12]: 0.167 [0.167, 0.167] h | Tmax [2, 13]: 0.167 [0.167, 0.167] h | AUClast [2, 13]: 0.0604 ± 0.00643 µM·h | Cmax [2, 13]: 80.3 ± 8.57 nM | Tmax [2, 14]: 0.167 [0.167, 0.167] h | AUClast [2, 14]: 0.0387 ± 0.00104 µM·h | Cmax [2, 14]: 60.0 ± 6.89 nM | Tmax [2, 15]: 0.167 [0.167, 0.167] h | AUClast [2, 15]: 0.112 ± 0.014 µM·h | Cmax [2, 15]: 141 ± 22.0 nM | Tmax [2, 16]: 0.167 [0.167, 0.167] h | AUClast [2, 16]: 0.081 ± 0.0133 µM·h | Cmax [2, 16]: 111 ± 13.5 nM | brain penetration of the metabolite [3]: neither the metabolite doxorubicin nor free Leu-Dox permeated the brain | tissue concentration rank order of the metabolite ([3]; n = 6): highest concentration in the liver, followed by the spleen, small intestine, kidney, tumor, lung, skin, gonads, stomach, plasma, skeletal muscle, and heart | Auto-Sampler Stability at 2–8 °C (72 h), Bias [4, 17]: −6.0% | Auto-Sampler Stability at 2–8 °C (72 h), Measured Concentration [4, 18]: 3758.33 ± 422.58 nM | Auto-Sampler Stability at 2–8 °C (72 h), Bias [4, 19]: −0.4% | Auto-Sampler Stability at 2–8 °C (72 h), Measured Concentration [4, 20]: 9.96 ± 0.48 nM | Short-Term Stability at Room Temperature (4 h), Bias [4, 17]: −3.2% | Freeze and Thaw Stability at −80 °C/Room Temperature (3 Cycles), Bias [4, 17]: −5.6% | Long-Term Stability at −80 °C (70 days), Bias [4, 17]: 7.5% | Freeze and Thaw Stability at −80 °C/Room Temperature (3 Cycles), Measured Concentration [4, 18]: 3775.00 ± 329.89 pmol/mL | Long-Term Stability at −80 °C (70 days), Measured Concentration [4, 18]: 4300.00 ± 240.83 pmol/mL | Short-Term Stability at Room Temperature (4 h), Measured Concentration [4, 18]: 3871.67 ± 390.25 pmol/mL | Short-Term Stability at Room Temperature (4 h), Bias [4, 19]: −2.4% | Freeze and Thaw Stability at −80 °C/Room Temperature (3 Cycles), Bias [4, 19]: 2.0% | Long-Term Stability at −80 °C (70 days), Bias [4, 19]: 0.7% | Freeze and Thaw Stability at −80 °C/Room Temperature (3 Cycles), Measured Concentration [4, 20]: 10.20 ± 0.70 pmol/mL | Long-Term Stability at −80 °C (70 days), Measured Concentration [4, 20]: 10.07 ± 1.50 pmol/mL | Short-Term Stability at Room Temperature (4 h), Measured Concentration ([4]; low QC (nominal Leu-DOX 10, DOX 3 pmol/mL), UHPLC-MS/MS): 9.76 ± 0.41 pmol/mL | Freeze and thaw stability at -80 °C/ room temperature, Bias [5, 21]: -1.8% | Freeze and thaw stability at -80 °C/ room temperature, Measured concentration [5, 22]: 2356.67 ± 81.65 pmol/mL | Freeze and thaw stability at -80 °C/ room temperature, Bias [5, 23]: -1.4% | Freeze and thaw stability at -80 °C/ room temperature, Measured concentration [5, 24]: 8.87 ± 0.24 pmol/mL | Long term stability at -80 °C (30 days), Bias [5, 25]: 9.9% | Short term stability at room temperature (6 h), Bias [5, 25]: -5.3% | Long term stability at -80 °C (30 days), Measured concentration [5, 22]: 2636.67 ± 103.47 pmol/mL | Short term stability at room temperature (6 h), Measured concentration [5, 22]: 2275.00 ± 81.67 pmol/mL | Long term stability at -80 °C (30 days), Bias [5, 26]: 0.9% | Short term stability at room temperature (6 h), Bias [5, 26]: -3.2% | Long term stability at -80 °C (30 days), Measured concentration [5, 24]: 9.08 ± 0.43 pmol/mL | Short term stability at room temperature (6 h), Measured concentration [5, 24]: 8.71 ± 0.32 pmol/mL | Auto-sampler stability at 2-8 °C, Bias [5, 21]: -2.4% | Auto-sampler stability at 2-8 °C, Measured concentration [5, 22]: 2341.67 ± 132.43 pmol/mL | Auto-sampler stability at 2-8 °C, Bias [5, 23]: -3.1% | Auto-sampler stability at 2-8 °C, Measured concentration [5, 24]: 8.72 ± 0.62 pmol/mL | Freeze and thaw stability at -80 °C/ room temperature, Bias ([6]; mouse liver homogenate, 3 cycles, low QC (Leu-DOX 27, DOX 10 pmol/mL), n = 6): 0.9% | Freeze and thaw stability at -80 °C/ room temperature, Measured concentration ([6]; mouse liver homogenate, 3 cycles, low QC (nominal Leu-DOX 27, DOX 10 pmol/mL), n = 6, mean ± SD): 27.23 ± 1.55 pmol/mL | Short term stability at room temperature (6 h), Bias ([6]; mouse liver homogenate, low QC (Leu-DOX 27, DOX 10 pmol/mL), n = 6): -4.8% | Short term stability at room temperature (6 h), Measured concentration ([6]; mouse liver homogenate, low QC (nominal Leu-DOX 27, DOX 10 pmol/mL), n = 6, mean ± SD): 25.72 ± 1.45 pmol/mL | Auto-sampler stability at 2-8 °C, Bias ([6]; processed mouse liver homogenate, 48h, low QC (Leu-DOX 27, DOX 10 pmol/mL), n = 6): 3.6% | Auto-sampler stability at 2-8 °C, Measured concentration ([6]; processed mouse liver homogenate, 48h, low QC (nominal Leu-DOX 27, DOX 10 pmol/mL), n = 6, mean ± SD): 27.97 ± 3.06 pmol/mL
